# From ChEMBL document CHEMBL1649564, “Anidulafungin treatment of candidal central nervous system infection in a murine model” (Antimicrob Agents Chemother, 2009)
# Calls of active or inactive are those of the source. The calls are words filed in the database; no cut-off is given here. Numbered stars: 1 amine (or outer) side, 2 acyl side, 3 side chain; on linkers, the order of the positions; unused ones are H or OH. Bridge positions count the residues as written; N and C are the ends. Square brackets hold non-standard residues; d marks the D form. Peptide text beside a SMILES is read from it. * marks the point of attachment. pTerphenylCO(4''-OnC5H11) = CCCCCOc1ccc(-c2ccc(-c3ccc(C(=O)*)cc3)cc2)cc1; Orn(4R-OH,5R-OH) = O=C([C@H](C[C@@H](O)[C@@H](O)N[*:3])N[*:1])[*:2]; hTyr(3S-OH,4S-OH) = N[C@H](C(=O)O)[C@H](O)[C@@H](O)c1ccc(O)cc1; Pro(3S-OH,4S-Me) = C[C@H]1CN[C@H](C(=O)O)[C@H]1O; Hyp = O=C(O)[C@@H]1C[C@@H](O)CN1
# Assays:
# [1] = Plasma concentration in mouse infected with Candida albicans at 60 mg/kg, po after 12 hrs; format: ADME, organism-based; set-up: dose 60 mg/kg, route oral; details: read-out: MIC
# Candida albicans [2] = test: Antifungal activity against Candida albicans infected in mouse assessed as decrease in fungus-induced mortality rate at 10 mg/kg, ip; format: functional, organism-based; set-up: dose 10 mg/kg
# Candida albicans [3] = test: Antifungal activity against Candida albicans infected in mouse assessed as decrease in fungus-induced mortality rate at 60 mg/kg, po; format: functional, organism-based; set-up: dose 60 mg/kg
# Candida albicans [4] = test: Antifungal activity against Candida albicans infected in mouse assessed as fungal load in brain at 60 mg/kg, po after 10 days; format: functional
# Candida albicans [5] = test: Antifungal activity against Candida albicans; format: functional
# [6] = Plasma concentration in mouse infected with Candida albicans at 60 mg/kg, po after 3 hrs; format: ADME, organism-based; set-up: dose 60 mg/kg, route oral; details: read-out: MIC
# [7] = Plasma concentration in mouse infected with Candida albicans at 60 mg/kg, po after 1 hr; format: ADME, organism-based; set-up: dose 60 mg/kg, route oral; details: read-out: MIC
# [8] = Plasma concentration in mouse infected with Candida albicans at 60 mg/kg, po after 24 hrs; format: ADME, organism-based; set-up: dose 60 mg/kg, route oral; details: read-out: MIC
# [9] = Plasma concentration in mouse infected with Candida albicans at 60 mg/kg, po after 6 hrs; format: ADME, organism-based; set-up: dose 60 mg/kg, route oral; details: read-out: MIC
# [10] = Plasma concentration in mouse infected with Candida albicans at 10 mg/kg, ip after 3 hrs; format: ADME, organism-based; set-up: dose 10 mg/kg, route intraperitoneal; details: read-out: MIC
# [11] = Plasma concentration in mouse infected with Candida albicans at 5 mg/kg, ip after 1 hr; format: ADME, organism-based; set-up: dose 5 mg/kg, route intraperitoneal; details: read-out: MIC
# [12] = Plasma concentration in mouse infected with Candida albicans at 5 mg/kg, ip after 3 hrs; format: ADME, organism-based; set-up: dose 5 mg/kg, route intraperitoneal; details: read-out: MIC
# [13] = Plasma concentration in mouse infected with Candida albicans at 5 mg/kg, ip after 6 hrs; format: ADME, organism-based; set-up: dose 5 mg/kg, route intraperitoneal; details: read-out: MIC
# [14] = Plasma concentration in mouse infected with Candida albicans at 10 mg/kg, ip after 24 hrs; format: ADME, organism-based; set-up: dose 10 mg/kg, route intraperitoneal; details: read-out: MIC
# Candida albicans [15] = test: Antifungal activity against Candida albicans infected in mouse assessed as decrease in fungus-induced mortality rate at 5 mg/kg, ip; format: functional, organism-based; set-up: dose 5 mg/kg
# Candida albicans [16] = test: Antifungal activity against Candida albicans infected in mouse assessed as fungal load in brain at 10 mg/kg, ip after 10 days; format: functional; details: route intraperitoneal
# [17] = Plasma concentration in mouse infected with Candida albicans at 10 mg/kg, ip after 6 hrs; format: ADME, organism-based; set-up: dose 10 mg/kg, route intraperitoneal; details: read-out: MIC
# Candida albicans [18] = test: Antifungal activity against Candida albicans infected in mouse assessed as decrease in fungal load in brain at 5 mg/kg, ip after 10 days; format: functional, organism-based; set-up: dose 5 mg/kg
# [19] = Plasma concentration in mouse infected with Candida albicans at 10 mg/kg, ip after 1 hr; format: ADME, organism-based; set-up: dose 10 mg/kg, route intraperitoneal; details: read-out: MIC
# [20] = Plasma concentration in mouse infected with Candida albicans at 5 mg/kg, ip after 12 hrs; format: ADME, organism-based; set-up: dose 5 mg/kg, route intraperitoneal; details: read-out: MIC
# [21] = Plasma concentration in mouse infected with Candida albicans at 5 mg/kg, ip after 24 hrs; format: ADME, organism-based; set-up: dose 5 mg/kg, route intraperitoneal; details: read-out: MIC
# [22] = Plasma concentration in mouse infected with Candida albicans at 10 mg/kg, ip after 12 hrs; format: ADME, organism-based; set-up: dose 10 mg/kg, route intraperitoneal; details: read-out: MIC
smiles,measurement,setting,value
C[C@@H](c1ncncc1F)[C@](O)(Cn1cncn1)c1ccc(F)cc1F [VORICONAZOLE],concentration at 12 h,[1],5370 ng/mL
same,Activity,Candida albicans [2],Active
same,inhibition,Candida albicans [3],Active
same,log10CFU/g,Candida albicans [4],3.23
same,MIC,Candida albicans [5],0.06 µg/mL
same,concentration at 3 h,[6],7280 ng/mL
same,concentration at 1 h,[7],7410 ng/mL
same,concentration at 24 h,[8],160 ng/mL
same,concentration at 6 h,[9],9470 ng/mL
"CCCCCOc1ccc(-c2ccc(-c3ccc(C(=O)N[C@H]4C[C@@H](O)[C@@H](O)NC(=O)[C@@H]5[C@@H](O)[C@@H](C)CN5C(=O)[C@H]([C@@H](C)O)NC(=O)[C@H]([C@H](O)[C@@H](O)c5ccc(O)cc5)NC(=O)[C@@H]5C[C@@H](O)CN5C(=O)[C@H]([C@@H](C)O)NC4=O)cc3)cc2)cc1 [ANIDULAFUNGIN] ({pTerphenylCO(4''-OnC5H11)}-[Orn(4R-OH,5R-OH)]T[Hyp][hTyr(3S-OH,4S-OH)]T[Pro(3S-OH,4S-Me)]; lactam 1-C)",concentration at 3 h,[10],4910 ng/mL
same,concentration at 1 h,[11],2500 ng/mL
same,concentration at 3 h,[12],1730 ng/mL
same,concentration at 6 h,[13],1660 ng/mL
same,concentration at 24 h,[14],1390 ng/mL
same,inhibition,Candida albicans [15],inactive
same,log10CFU/g,Candida albicans [16],2.65
same,concentration at 6 h,[17],3180 ng/mL
same,MIC,Candida albicans [5],0.03 µg/mL
same,inhibition,Candida albicans [18],inactive
same,concentration at 1 h,[19],4020 ng/mL
same,concentration at 12 h,[20],1180 ng/mL
same,concentration at 24 h,[21],180 ng/mL
same,concentration at 12 h,[22],2730 ng/mL
